From publication PMC9144807, “Fluorine-18 Labeled Urea-Based Ligands Targeting Prostate-Specific Membrane Antigen (PSMA) with Increased Tumor and Decreased Renal Uptake” (Pharmaceuticals, 2022)
Where two headings read alike, the source gives them in different places.

Tests used:
[1] = target: T1, PSMA (Homo sapiens, UniProt Q04609); assay: In vitro saturation binding assay with PC3(+) tumor membrane preparations
T1 construct: expressed in transfected cells; host or cells: PC3(+) (PC3 human prostate cancer cells transfected with human PSMA), grown as xenograft tumors in athymic mice; tumor membrane preparations
T1 sequence (Q04609 whole entry): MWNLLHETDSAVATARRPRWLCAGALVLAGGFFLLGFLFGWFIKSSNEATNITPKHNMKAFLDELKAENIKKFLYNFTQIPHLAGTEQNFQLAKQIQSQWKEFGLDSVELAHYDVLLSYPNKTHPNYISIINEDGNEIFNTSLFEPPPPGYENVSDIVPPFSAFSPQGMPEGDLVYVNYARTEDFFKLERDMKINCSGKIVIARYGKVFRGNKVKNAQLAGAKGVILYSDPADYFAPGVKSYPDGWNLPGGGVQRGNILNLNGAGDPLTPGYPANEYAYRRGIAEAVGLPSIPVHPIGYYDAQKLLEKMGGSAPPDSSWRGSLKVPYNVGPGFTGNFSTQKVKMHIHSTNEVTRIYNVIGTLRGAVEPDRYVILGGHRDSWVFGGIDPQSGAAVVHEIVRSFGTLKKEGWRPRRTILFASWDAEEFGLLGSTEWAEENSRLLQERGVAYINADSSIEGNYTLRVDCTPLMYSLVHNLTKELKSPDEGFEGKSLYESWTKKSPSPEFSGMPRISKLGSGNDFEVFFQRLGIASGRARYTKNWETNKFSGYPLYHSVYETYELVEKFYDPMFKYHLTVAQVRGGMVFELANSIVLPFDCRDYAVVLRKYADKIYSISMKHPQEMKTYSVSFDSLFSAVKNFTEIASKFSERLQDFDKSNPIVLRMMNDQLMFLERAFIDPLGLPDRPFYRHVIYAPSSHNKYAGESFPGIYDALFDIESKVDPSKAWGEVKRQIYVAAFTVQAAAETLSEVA
Procedure: (§1) PC3(−) (wildtype human prostate cancer cell line, PSMA negative) and PC3(+) (transfected with human PSMA) were provided by Dr. Hisataka Kobayashi. Cell lines were grown at 37 °C in 5% CO2 in RPMI-1640 supplemented with 10% FBS, 2 mM L-glutamine and Pen/Strep/Amphotericin B. PC3(+) and PC3(−) cell suspensions [2 × 10^6 cells; PBS:Matrigel (70:30)] from in vitro cell culture were subcutaneously implanted (right shoulder) into athymic mice (Athymic NCr- nu/nu, Charles River Laboratory, 4 weeks old) for use as positive and negative controls, respectively, for in vitro or in vivo studies. When tumors reached the appropriate size (>100 mg) the xenograft mice were used for in vivo biodistributions and imaging studies or the tumors were excised and further processed to obtain membrane preparations for in vitro assays as described previously.
In vitro saturation studies were performed to determine binding affinities (Kd) and PSMA expression levels (Bmax) using tumor membrane preparations from PC3(−) and PC3(+) PSMA xenografts (human prostate cancer cell line transfected with human PSMA; PC3(+)). […] Filter papers were collected, and the radioactive content was quantified by gamma counting (PerkinElmer 2480 Wizard3). […] Aliquots of each membrane preparation were taken for the determination of the protein concentration (Bradford method).

[2] = Fraction of intact tracer (parent) in blood and kidney by TLC; type: in vivo, mice; settings: for %Parent compound in blood (TLC analysis): 60 min, mean ± SD, n = 2–5; for tissue uptake at 1 h: 60 min post-injection; for tissue uptake at 2 h: 120 min post-injection
Description: In some cases, additional blood samples and/or tissue samples after gamma counting were taken for determining the fraction of intact radiolabeled tracer (parent) using thin-layer chromatography (TLC). For these TLC determinations: tissues were placed in equal volumes of acetonitrile and homogenized, or serum was obtained from the blood samples and mixed with an equal volume of acetonitrile. Following centrifugation of the samples, supernatants were collected and the radioactive content of the supernatants and pellets were determined. The supernatants were then applied to thin-layer chromatography (TLC) plates. The TLC plates were developed [solvent system: ethyl acetate (80%), methanol (10%) and acetic acid (10%)], and exposed on a phosphorimaging plate which was scanned the next day.

[3] = tested on: PC3(+) xenografts; assay: In vivo biodistribution in PC3(+) xenograft mice; design: key to salivary gland T:M / Femur T:M / Blood T:M / Kidney T:M / Liver T:M: T:M = (%ID/g in tissue) / (%ID/g in muscle)
Procedure: as §1
(§2) Tumor-bearing mice (tumor weights: 0.1–0.8 g) were injected while awake via the tail vein with each of the tracers [0.74–3.7 MBq (20 to 100 µCi), 10 to 80 pmol] and euthanized (via CO2 inhalation) at selected times. […] Blood samples and tissues were excised from each animal, weighed, and radioactivity content was determined (Perkin Elmer 2480 Wizard3). Radioactivity content in the blood and each tissue was expressed as % injected dose per gram of tissue [%ID/g; (Formula (1))] and then normalized for body weight to a 20 g mouse (Formula (2)) from which Tissue:Muscle ratios [T:M; (Formula (3))] were determined as follows:(1) %ID/g =[counts per minute cpmtissue / tissue weight g]×100/cpmtotal injected dose
(§3) %ID/g (normalized to a 20 g mouse) = (%ID/g) × (body weight/20 g)(2)
(§4) (3) T:M=%ID/gtissue/%ID/gmuscle

[4] = tested on: PC3(−) xenografts; assay: In vivo biodistribution in PC3(−) xenograft mice (negative control); settings: 60 min; for PC3(−) Tumor T:M: mean ± SE, n = 8–10
Procedure: as §1, §2, §3, §4

[5] = target: T1, PSMA; assay: In vitro competition binding assay with [18F]DCFPyL as radioligand, PC3(+) tumor membrane preparations
[6] = tested on: PC3(+) xenografts; assay: Blocking biodistribution study in PC3(+) xenografts, coinjection of non-radioactive DCFPyL; type: in vivo, mice; settings: 60 min
Procedure: as §2, §3, §4

[7] = tested on: PC3(+) tumor xenograft mice; assay: Small animal PET imaging with ROI analysis, PC3(+) tumor xenograft mice; type: in vivo; settings: 60 min post-injection
Procedure: Tumor-bearing mice were anesthetized with isoflurane/O2 (1.5–3% v/v) and imaged at various times after intravenous injection of each tracer [2.6 to 3.7 MBq (70 to 100 µCi)]. Whole body static PET images were obtained at 2 bed positions (FOV = 2.0 cm, total imaging time: 10 min) using a BioPET scanner (Bioscan Inc., Washington, DC, USA). The images were reconstructed by a 3-dimensional ordered-subsets expectation maximum (3D-OSEM).

[8] = 15 min post-injection, mean ± SE
[9] = 30 min post-injection, mean ± SE
[10] = mouse, blood, intravenous, mean ± SE, read-out: Blood uptake, parent (corrected for metabolites)
[11] = mouse, kidney, intravenous, mean ± SE, read-out: Kidney uptake, parent (corrected for metabolites)
[12] = 60 min post-injection, mean ± SE
[13] = 120 min post-injection, mean ± SE

With `O=C(O)CC[C@H](NC(=O)N[C@@H](CCCCNC(=O)CO/N=C\c1ccc([18F])cc1)C(=O)O)C(=O)O` [[^18F]1a, reference compound] the Kd ([1]; saturation assays, mean (SE), n = 3–5) was 0.238 nM, the “%Parent compound in blood (TLC analysis)” value [2] was 50.2 ± 1.4% and the “Blood T:M” value ([3]; 60 min, mean ± SE, n = 8–10) was 2.39 ± 0.14. For the same molecule, the “Femur T:M” value ([3]; 60 min, mean ± SE, n = 8–10) was 0.92 ± 0.09, the “Kidney T:M” value ([3]; 60 min, mean ± SE, n = 8–10) was 507.8 ± 44.0 and the “Liver T:M” value ([3]; 60 min, mean ± SE, n = 8–10) was 35.7 ± 3.1. For the same molecule, the “PC3(+) Tumor T:M” value ([3]; 60 min, mean ± SE, n = 8–10) was 103.0 ± 10.9, the “PC3(−) Tumor T:M” value [4] was 1.07 ± 0.08 and the Ki [5] was 0.1 nM. The “decrease in Ki compared to Ki of DCFPyL” value ([5]; p = 0.006) was ~ 4 fold.
For `O=C(O)CCC(NC(=O)NC(CCCCNC(=O)c1ccc([18F])nc1)C(=O)O)C(=O)O` (stereo not shown) [[^18F]DCFPyL, 2-(3-(1-carboxy-5-[(6-[^18F]fluoropyridine-3-carbonyl)-amino]-pentyl)-ureido)-pentanedioic acid, reference compound], the “Bmax (PSMA expression level)” value ([1]; n = 5) was 13.95 ± 1.60 fmol/µg of protein, the “Blood uptake, parent (corrected for metabolites)” value [2, 8] was 1.06 ± 0.05 %ID/g and the “Kidney uptake, parent (corrected for metabolites)” value [2, 9] was 20.18 ± 0.72 %ID/g. For the same molecule, the “%Parent compound in blood (TLC analysis)” value [2] was 49.9 ± 10.7%, the tissue uptake at 0.5 h ([2]; mouse, blood, intravenous, 30 min post-injection, mean ± SE, read-out: Blood uptake, parent (corrected for metabolites)) was 0.4 ± 0.02 %ID/g and the tissue uptake at 1 h [2, 10] was 0.26 ± 0.02 %ID/g. For the same molecule, the tissue uptake at 2 h [2, 10] was 0.045 ± 0.003 %ID/g, the tissue uptake at 0.25 h ([2]; mouse, kidney, intravenous, 15 min post-injection, mean ± SE, read-out: Kidney uptake, parent (corrected for metabolites)) was 17.1 ± 0.84 %ID/g and the tissue uptake at 1 h [2, 11] was 17.6 ± 1.48 %ID/g. The tissue uptake at 2 h [2, 11] was 3.41 ± 0.46 %ID/g, the “% of parent in blood” value ([2]; nude, mouse, in vivo) was 50-40 and the “% of parent in kidney” value ([2]; nude, mouse, in vivo) was 16-7. For the same molecule, the “increase of liver T:M in blocked group compared to tracer-only group” value [6] was 2.7 fold, the “PC3(+) tumor T:M of the blocked group” value ([6]; coinjection of DCFPyL 1000×) was 50 and the “decrease of PC3(+) tumor T:M in blocked group compared to non-blocked group” value ([6]; coinjection of DCFPyL 1000×) was 60%. The “decrease of kidney T:M in blocked group” value ([6]; coinjection of DCFPyL 1000×) was 96%, the “decrease of spleen T:M in blocked group” value ([6]; coinjection of DCFPyL 1000×) was 81% and the “liver T:M of the blocked group” value ([6]; coinjection of DCFPyL 1000×) was 27. The “reduction in blood and most tissue uptakes (%ID/g) compared to tracer-only group” value ([6]; coinjection of DCFPyL 1000×) was over 50%, the “PC3(+) tumor T:M of the tracer-only group of the blocking study” value ([6]; no blocking dose) was 141 and the “PC3(+) tumor uptake” value ([3]; 15 min) was 18.6 %ID/g. The “salivary gland T:M” value ([3]; 15 min) was 2.7, the “Blood uptake, total radioactivity” value [3, 8] was 2.66 ± 0.12 %ID/g and the “Kidney uptake, total radioactivity” value [3, 8] was 132.9 ± 6.6 %ID/g. For the same molecule, the “Blood uptake, total radioactivity” value [3, 9] was 1.03 ± 0.05 %ID/g, the “Kidney uptake, total radioactivity” value [3, 9] was 126.9 ± 5.6 %ID/g and the “PC3(+) tumor uptake” value ([3]; 60 min) was 25.6 %ID/g. The “Radioactivity in the blood” value ([3]; 60 min (Figure 5A)) was 0.519 %ID/g, the “Blood T:M” value ([3]; 60 min, mean ± SE, n = 8–10) was 2.29 ± 0.15 and the “Femur T:M” value ([3]; 60 min, mean ± SE, n = 8–10) was 0.90 ± 0.09. For the same molecule, the “Kidney T:M” value ([3]; 60 min, mean ± SE, n = 8–10) was 695.1 ± 76.0, the “Liver T:M” value ([3]; 60 min, mean ± SE, n = 8–10) was 9.88 ± 7.4 and the “PC3(+) Tumor T:M” value ([3]; 60 min, mean ± SE, n = 8–10) was 124. The “Blood uptake, total radioactivity” value [3, 12] was 0.52 ± 0.06 %ID/g, the “Kidney uptake, total radioactivity” value [3, 12] was 147.7 ± 11.6 %ID/g and the “PC3(+) tumor uptake” value ([3]; 120 min) was 20.8 %ID/g. The “salivary gland T:M” value ([3]; 120 min) was 2.0, the “Blood uptake, total radioactivity” value [3, 13] was 0.13 ± 0.01 %ID/g and the “Kidney uptake, total radioactivity” value [3, 13] was 50.2 ± 3.6 %ID/g. The Femur uptake ([3]; all times 15 to 120 min) was under 1 %ID/g, the “Femur T:M” value ([3]; all times except 120 min) was under 1.8 and the “salivary gland radioactivity cleared” value ([3]; at 120 min) was 92%. For the same molecule, the “decrease of kidney uptake from 15 to 120 min” value ([3]; mouse, in vivo) was 65%, the “decrease of salivary gland T:M from 15 to 120 min” value ([3]; mouse, in vivo) was 34% and the “increase in tumor T:M from 15 to 120 min” value ([3]; mouse, in vivo) was 11 fold. The “PC3(−) tumor uptake” value [4] was 0.3 %ID/g, the “PC3(−) tumor uptake as fraction of uptake in PC3(+) tumors” value [4] was under 2% and the “PC3(−) Tumor T:M” value [4] was 1.50 ± 0.17. The “PC3(+) tumor uptake from ROI analysis of PET images” value [7] was 19 %ID/g, the “kidney uptake from ROI analysis of PET images” value [7] was 187 %ID/g and the “liver uptake from ROI analysis of PET images” value [7] was 3 %ID/g.
